Results: US11192902B1, “Heterocyclic diazenyl pyridinone copper(II) complexes as pharmacological antitumor agents” (King Abdulaziz University, priority 2020, dated 2021)

How the values were obtained:
[1] = tested on: human primary hepatocytes THLE-2 (normal cell line); experiment: Cytotoxic activity test on normal cell line THLE-2 (MTT assay); format: cell-based
Protocol: The samples were tested against the human primary hepatocytes THLE-2 (normal cell line, ATCC). Cells were maintained at sub-confluency at 37° C. in humidified air containing 5% CO2. The samples' concentrations ranged between (100 to 0.78 μg/ml) and the MTT assay was used to assess cell death.

[2] = tested on: MCF-7 human breast adenocarcinoma cells; experiment: Cytotoxicity against MCF-7 human breast adenocarcinoma cells (MTT); format: cell-based; details: MCF-7 cells, 48 hrs

CCCCCCn1c([O-])c(N=Nc2ccc(C)cc2)c(C)c(C#N)c1=O.CCCCCCn1c([O-])c(N=Nc2ccc(C)cc2)c(C)c(C#N)c1=O.[Cu+2] [D4]
Mean IC50, THLE-2 human normal hepatocytes ([1]; THLE-2 cells, 48 hrs, MTT, 100 to 0.78 μg/ml, mean): 169.76 μg/mL
effect on the normal cell line (safety) ([1]; THLE-2 normal cell line, at the high concentration of 100 ppm): safe
Mean IC50, MCF-7 human breast adenocarcinoma cells [2]: 83.72 µg/mL
